The values below come from PubChem BioAssay (NCI).

SMILES strings stand for the structures.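 The compound was tested at five concentrations on cells cultured in 96-well plates, with a 48-hour exposure period. GI50 = concentration required for 50% inhibition of growth. TGI is the concentration that stops growth completely.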

Experiment in all cases: NCI-60 cell line screen, 48 h
The subject of assay [1] is OVCAR-5 ovarian.
In assay [2] the test system is NCI-H226 lung.
The test system of assay [3] is K-562 leukemia.
The test system of assay [4] is OVCAR-8 ovarian.
Assay [5] deals with PC-3 prostate.
Assay [6] deals with SNB-75 CNS.
Assay [7] concerns CCRF-CEM leukemia.
Assay [8] has as its system RPMI-8226 leukemia.
In assay [9] the test system is A498 renal.
Assay [10] concerns HS 578T breast.

As to `CCOC(=O)c1ccc(N=c2sc3ccccc3nc2Nc2ccc(C(=O)OCC)cc2)cc1`, the TGI in assay [1], in assay [2], in [3], in assay [4], in assay [5] and in assay [6] was > 100 µM in each case. Also, the TGI in assay [7], in assay [8], in [9] and in [10] was > 100 µM in each case.

Turning to `COc1cc(CNNC(N)=S)cc(OC)c1OC`, the TGI in assay [1], in [2], in [3], in assay [4], in [5] and in assay [6] was > 100 µM in each case. Further, the TGI in assay [7], in assay [8], in [9] and in assay [10] was > 100 µM in each case.

For the molecule `Cc1nc2c(=O)n(C)ncc2[nH]1`, the TGI in assay [1], in assay [2], in assay [3], in [4], in [5] and in [6] was > 100 µM throughout. Further, the TGI in assay [7], in assay [8], in assay [9] and in [10] was > 100 µM each time.

Regarding `CCOC(=O)c1c(N2CCOCC2)[nH]c(=O)c(C(c2ccco2)c2c(O)c(C(=O)OCC)c(N3CCOCC3)[nH]c2=O)c1O`, the TGI in [1], in assay [2], in [3], in assay [4], in assay [5] and in assay [6] was > 100 µM each time. In addition, the TGI in assay [7], in assay [8], in assay [9] and in [10] was > 100 µM each time.

As for `COc1cc2c(cc1OCCCC(=O)Nc1ccc3ccc4cccc5ccc1c3c45)N=C[C@@H]1CCCN1C2=O`, the GI50 in assay [1] was < 0.01 µM; in assay [2] it was < 0.0109 µM; in assay [3], 0.19 µM; in [4], < 0.0134 µM; in assay [5], 0.222 µM; in assay [7] it was 0.0335 µM. Moreover, the values for the GI50 in assay [8], in assay [9] and in assay [10] were 0.042 µM, < 0.0243 µM and < 0.0167 µM, respectively. Moreover, the TGI in assay [1] was < 0.0506 µM; in [2], < 0.0243 µM; in assay [3] it was 14.1 µM; in assay [4], < 0.0245 µM; in [5], 6.69 µM; in assay [6], 1.12 µM. Also, the TGI in [7] was 0.936 µM; in [8], 0.238 µM; in assay [9], < 0.0509 µM; in assay [10], 0.064 µM.

Turning to `C=CC(Cl)(CBr)CCC(Br)C(C)(C)Cl` (centres undefined), the TGI was 31.1 µM in assay [1]; > 100 µM in assay [2]; 72.4 µM in assay [3]; 31.5 µM in [4]; 35 µM in [5]; 68.8 µM in [6]. The TGI in assay [7] was 29 µM; in [8] it was 29.5 µM; in [9], 27.2 µM; in assay [10], > 100 µM.

Take `O=C1C(Cl)=C(Nc2ccc(S(=O)(=O)Nc3ccccn3)cc2)C(=O)c2ccccc21`: the TGI in [1] is > 46.9 µM; in assay [2], 42.1 µM; in [3] it was 16.5 µM; in [4] it was 15.9 µM; in assay [5] it was 27 µM; in assay [6], 21.9 µM. In addition, the TGI in assay [7] was > 25.5 µM; in assay [8], 15.4 µM; in assay [9], 45.1 µM; in [10], 48 µM.

For `COc1ccc(C(=O)/C=C/c2cc(O)c(O)c(F)c2F)c(OC)c1`, the TGI in assay [1] was 95.7 µM; in assay [2], 56.6 µM; in assay [3], > 100 µM; in [4], > 100 µM; in [5], 40.6 µM; in assay [6], 79.5 µM. Also, the TGI is 32.9 µM in assay [7], 40.8 µM in assay [8], 55.5 µM in assay [9] and > 100 µM in assay [10].

Consider `Nc1onc2c1Cc1c(noc1N)-c1ccccc1-2`, for which the TGI in assay [1] is > 100 µM; in assay [2], > 100 µM; in assay [3], > 100 µM; in assay [4], > 100 µM; in assay [5], > 100 µM; in assay [6], 95.1 µM. In addition, the TGI in assay [7] was > 100 µM; in [8], > 100 µM; in assay [9] it was 72.2 µM; in [10], 83.8 µM.

As to `CC(=O)Nc1c(C)cc2c(nc3n2CCC3O)c1[N+](=O)[O-]` (centres undefined), the TGI in assay [1], in [2], in [3], in assay [4], in assay [5] and in assay [6] was > 100 µM each time. The TGI in [7], in assay [8], in assay [9] and in assay [10] was > 100 µM throughout.

Turning to `O=C1C(c2c(O)[nH]c3ccc(Br)cc23)=Nc2ccccc21`, the TGI in assay [1] was 26 µM; in [2] it was 34.3 µM; in assay [3], > 100 µM; in assay [4] it was 21.7 µM; in assay [5] it was 17.8 µM; in assay [6], 28.4 µM. Also, the TGI in [7] was > 100 µM; in assay [8] it was > 100 µM; in assay [9], 14.1 µM; in [10] it was 54.6 µM.

On to `OCCNCNc1nc(NCNCCO)nc(N(CNCCO)CNCCO)n1`, for which the TGI in assay [1] came out at 21 µM; in assay [2] it was 47.1 µM; in assay [3] it was 50.3 µM; in [4], 59.5 µM; in assay [5] it was 50 µM; in assay [6] it was 50.6 µM. Also, the TGI in assay [7] was > 69.7 µM; in assay [8], > 68.2 µM; in [9], 62 µM; in assay [10], > 78.8 µM.

For the molecule `CC(C)(C)OC(=O)N1C(c2cccnc2)=CC[C@H]2C3CC=C(c4cccnc4)[C@@]3(C)CC[C@@H]21` (some centres undefined), the TGI in assay [1] amounted to 28.6 µM; in assay [2], 15.1 µM; in [3], 38.6 µM; in assay [4], 25 µM; in assay [5] it was 19.3 µM; in assay [6] it was 19.7 µM. The TGI worked out at 25.8 µM in assay [7], 5.05 µM in assay [8], 18.5 µM in assay [9] and 24.7 µM in [10].

As for `CC(=O)OCc1ccc2oc(=O)c(C(=O)Oc3ccccc3)cc2c1`, the TGI in assay [1] is > 100 µM; in [2], > 100 µM; in assay [3] it was 30 µM; in assay [4], > 100 µM; in assay [5], 34.5 µM; in assay [6], > 100 µM. Also, the TGI in assay [7], in assay [8], in assay [9] and in [10] was > 100 µM in each case.

`CCCCCCCCCCCCCCCCCCN(C)CC(COP(=O)([O-])OCC[N+](C)(C)C)OC` (centres undefined): the TGI in assay [1] is 11.1 µM; in assay [2], 42.4 µM; in assay [3], 54.6 µM; in [4], 44.8 µM; in [5] it was 32.9 µM; in [6] it was 15.6 µM. The TGI in assay [7] was 24.3 µM; in assay [8] it was 18.6 µM; in assay [9], 39.3 µM; in [10] it was > 85.8 µM.

`O=C(Nc1nc(C23CC4CC(CC(C4)C2)C3)cs1)c1cc2ccccc2oc1=O`: the TGI in assay [1], in assay [2], in assay [3], in [4], in assay [5] and in assay [6] was > 100 µM each time. The TGI in [7], in assay [8], in assay [9] and in assay [10] was > 100 µM each time.

With `C=C(Br)CNC(=O)CCC(=O)NCC(=C)Br`, the TGI in assay [1], in assay [2], in [3], in assay [4], in assay [5] and in assay [6] was > 100 µM each time. Also, the TGI in [7], in [8], in assay [9] and in [10] was > 100 µM in each case.

`Cn1c(-c2cccc([N+](=O)[O-])c2)[n+](C)c2ccccc21`: the TGI in assay [1], in assay [2], in [3], in assay [4], in [5] and in assay [6] was > 100 µM in each case. Further, the TGI in assay [7], in [8], in assay [9] and in assay [10] was > 100 µM each time.

As to `C/C(=N\NC(=S)NCCCNC(=S)N/N=C(\C)c1ccccn1)c1ccccn1`, the TGI in [1] is > 90.3 µM; in [2], > 29.6 µM; in assay [3], > 100 µM; in [4] it was 10.9 µM; in assay [5], > 91.5 µM; in [6], 31.7 µM. Moreover, the TGI in assay [7] is 9.4 µM; in [8] it was > 100 µM; in assay [9] it was 26.2 µM; in assay [10], > 100 µM.

In the case of `NC(N)=Nc1ccc(CC(N)C(=O)O)cc1` (centres undefined), the TGI in assay [1], in assay [2], in assay [3], in assay [4], in assay [5] and in [6] was > 12.5 µM throughout. Besides, the TGI in assay [7], in assay [8], in assay [9] and in [10] was > 12.5 µM in each case.

Take `Oc1ccc2c(c1)-c1c(c3ccccc3n1CCN1CCOCC1)CC2`: the TGI was 61.3 µM in assay [1]; 81.2 µM in [2]; > 100 µM in [3]; > 100 µM in [4]; > 100 µM in assay [5]; 68.5 µM in assay [6]. Also, the TGI in [7], in assay [8], in assay [9] and in [10] was > 100 µM throughout.

Take `CC(C)/C(Cl)=N\OC(=O)Nc1cccc(Cl)c1`: the TGI was 18.3 µM in assay [1]; 38.9 µM in assay [2]; 4.7 µM in [3]; 29.4 µM in assay [4]; 29.7 µM in assay [5]; 33.2 µM in assay [6]. Further, the TGI stood at 5.05 µM in assay [7], 25 µM in assay [8], 33.2 µM in assay [9] and 72.8 µM in [10].

In the case of `N#Cc1cnc(N)nc1NCC1(CO)CC(CCc2ccccc2)C1` (centres undefined), the TGI in assay [1] is > 100 µM; in assay [2], > 100 µM; in [3], > 100 µM; in assay [4], > 100 µM; in assay [5] it was > 100 µM; in assay [6] it was > 83.1 µM. The TGI in assay [7], in assay [8], in assay [9] and in assay [10] was > 100 µM throughout.

On to `O=[N+]([O-])c1cc(-c2nc(-c3ccccc3)c(-c3ccccc3)[nH]2)c(O)c([N+](=O)[O-])c1`, for which the TGI is 50.3 µM in assay [1]; 40.7 µM in assay [2]; > 100 µM in assay [3]; > 100 µM in assay [4]; 44.3 µM in assay [5]; 60 µM in [6]. In addition, the TGI is 72.7 µM in assay [7], 75.1 µM in [8], 40.5 µM in [9] and > 100 µM in assay [10].

Regarding `COc1ccc2c(c1)CCc1c-2n(CCN2CCCCC2)c2ccc(OC)cc12`, the TGI in [1] was > 100 µM; in assay [2], 56.7 µM; in assay [3] it was > 100 µM; in [4], > 100 µM; in assay [5], > 100 µM; in [6] it was > 100 µM. Besides, the TGI in [7], in assay [8], in assay [9] and in [10] was > 100 µM each time.

Consider `CCOC(=O)C(SCCO)C(C(=O)OCC)n1ccc(=O)[nH]c1=O` (centres undefined), for which the TGI in assay [1] was 47.6 µM; in assay [2], > 61.2 µM; in assay [3], 36.1 µM; in assay [4] it was > 57.4 µM; in assay [5] it was > 100 µM; in [6], > 95.9 µM. For the same molecule, the TGI is 10.5 µM in assay [7], 47.8 µM in [8], > 100 µM in assay [9] and > 100 µM in [10].
